The subject of assay [1] is Bovine aortic endothelial cells (BAEC). As to the kind of experiment: Collagen matrix angiogenesis assay (microvessel formation). The format is cell-based. To be noted: 37 μg/ml, 24 hours. Here is the method:
An experiment was performed to evaluate the effect of angiocidin on angiogenesis. Bovine aortic endothelial cells (BAEC) were plated on a collagen matrix. Next, the cells were over-layered with collagen. Angiocidin (37 μg/ml) was added on top of the cells in the treatment plate, and the control plate only received buffer. After 24 hours, phase contrast photomicrographs (200×) were taken. In the control plate, the BAEC cells rearranged themselves into a network of microvessels. […] This collagen assay is a well recognized model for angiogenesis. Qian et al., Thrombospondin-1 modulates angiogenesis in vitro by up-regulation of matrix metalloproteinase-9 in endothelial cells, Exp. Cell Res. 235:403-412 (1997).

Assay [2] deals with Lung Human Microvascular Endothelial Cells (HMVEC-L). The experiment in a line: ALAMAR BLUE cell viability assay. The format is cell-based. The conditions noted are these: Example 26. (In general: Resazurin is reduced to fluorescent resorufin, in cell work by metabolically active cells.)
Assay [3] addresses T1, biotin-angiocidin complex binding to TSP-1 (Homo sapiens, UniProt P55036, INS254GER).
T1 sequence (P55036 with tags, fused parts or gaps INS254GER): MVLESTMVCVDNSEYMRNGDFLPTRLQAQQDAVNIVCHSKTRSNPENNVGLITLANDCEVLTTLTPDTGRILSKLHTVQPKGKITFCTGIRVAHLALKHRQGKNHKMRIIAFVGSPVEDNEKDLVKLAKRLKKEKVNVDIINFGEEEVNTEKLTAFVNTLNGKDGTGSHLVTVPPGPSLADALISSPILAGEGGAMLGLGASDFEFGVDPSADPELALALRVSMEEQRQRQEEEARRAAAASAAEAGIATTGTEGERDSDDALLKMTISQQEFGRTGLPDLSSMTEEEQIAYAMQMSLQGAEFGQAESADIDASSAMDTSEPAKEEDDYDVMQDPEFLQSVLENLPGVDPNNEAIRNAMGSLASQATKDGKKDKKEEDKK
The experiment in a line: Biotin-avidin receptor binding assay: competition. The conditions noted are these: Example 23, FIGS. 29 and 30. The procedure:
In the following experiments, TSP-1 was covalently bound to a substrate, biotinylated angiocidin was added to the plate, and avidin-peroxidase was added to measure how much biotinylated angiocidin was attached to the TSP-1. The avidin-peroxidase was measured using a spectrophotometer at an absorbance of 450 nm.
Free angiocidin was added to the system to compete with the biotinylated angiocid in. […] Immobilized BSA was used as a negative control.
The TSP-1 peptide Cys-Ser-Val-Thr-Cys-Gly (SEQ ID NO: 1) was added to the system to compete with the TSP-1 on the plate for binding with the biotinylated angiocidin. The scrambled peptide Val-Cys-Thr-Gly-Ser-Cys (SEQ ID NO: 15) was used as a negative control and had no effect.
The avidin-biotin system discussed above was used to evaluate the competitive effect of various peptides on the binding of TSP-1 and angiocidin. […] The scrambled peptide Val-Cys-Thr-Gly-Ser-Cys-Gly (SEQ ID NO: 21) and the d-orientation peptide d-Cys-Ser-Val-Thr-Cys-Gly (SEQ ID NO: 22) were used as negative controls.

The test system of assay [4] is Human Aortic Endothelial Cells (HAEC). The experiment in a line: ALAMAR BLUE cell viability assay. The format is cell-based. The conditions noted are these: Example 26.

Consider “angiocidin: Cys-Ser-Val-Thr-Cys-Gly (SEQ ID NO: 1)-specific thrombospondin (TSP-1) receptor protein; recombinant form of SEQ ID NO: 2 used in the Examples”, for which the microvessel formation entry in assay [1] is “the microvessels did not form and the cells appeared dead”. In addition, the cell viability result in assay [2] and in assay [4] was “negative effect on the viability of both cell lines” throughout. Further, the “competition of biotin-angiocidin binding to TSP-1” value in assay [3] is given as “the binding decreased linearly”.

Values taken from US20030180295A1, “Angiocidin: a Cys-Ser-Val-Thr-Cys-Gly specific tumor cell adhesion receptor” (Philadelphia Health and Education Corporation, priority 1999, published 2003).
